Assay results as given in US4015974A, “Amido phosphorothiolates” (priority 1972, dated 1977).

Key:
Format in all cases: in vivo
[1] = system: barnyard grass (Echinochloa crus-galli); experiment: Pre-emergence application, herbicidal effect on barnyard grass (Table 1); set-up: key: 0: not damaged; 5: completely killed; conditions: 20 days after application, score 0-5
Outline: (§1)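 Pre-emergence soil treatment: seeds sown in pots of about 10 cm and covered with soil, then compounds applied as wettable powder diluted in water. Plants grown in a greenhouse; damage scored 20 days after application from 0 (not damaged) to 5 (completely killed).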

[2] = system: large crabgrass (Digitaria sanguinalis); experiment: Pre-emergence application, herbicidal effect on large crabgrass (Table 1); set-up: key: 0: not damaged; 5: completely killed; conditions: 20 days after application, score 0-5
Outline: as §1

radish = experiment: Pre-emergence application, herbicidal effect on radish (Table 1); set-up: key: 0: not damaged; 5: completely killed; conditions: 20 days after application, score 0-5
Outline: as §1

[3] = system: redroot pigweed (Amaranthus retroflexus); experiment: Pre-emergence application, herbicidal effect on redroot pigweed (Table 1); set-up: key: 0: not damaged; 5: completely killed; conditions: 20 days after application, score 0-5
Outline: as §1

[4] = system: common purslane (Portulaca oleracea); experiment: Pre-emergence application, herbicidal effect on common purslane (Table 1); set-up: key: 0: not damaged; 5: completely killed; conditions: 20 days after application, score 0-5
Outline: as §1

[5] = system: common lambsquarter (Chenopodium album); experiment: Pre-emergence application, herbicidal effect on common lambsquarter (Table 1); set-up: key: 0: not damaged; 5: completely killed; conditions: 20 days after application, score 0-5
Outline: as §1

rice = experiment: Water application, phytotoxicity on rice (Table 2); set-up: key: 0: no effect; 1: very slightly affected; 2: slightly affected; 3: moderately affected; 4: considerably affected; 5: completely killed; conditions: 25 days, score 0-5
Outline: (§2)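 Flooded paddy-soil pots with 3-leaf-stage transplanted rice and sown barnyard grass; wettable-powder compounds applied to soil under water. Herbicidal effect and rice phytotoxicity, also on spontaneously germinated broad-leaved weeds, scored 0–5 at 25 days after application.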

[6] = system: barnyard grass (Echinochloa crus-galli); experiment: Water application, herbicidal effect on barnyard grass (Table 2); set-up: key: 0: not damaged; 5: completely killed; conditions: 25 days, score 0-5
Outline: as §2

[7] = system: broad-leaved weeds, e.g., monochoria, false pimpernel and toothcup; experiment: Water application, herbicidal effect on broad-leaved weeds (Table 2); set-up: key: 0: not damaged; 5: completely killed; conditions: 25 days, score 0-5
Outline: as §2

| SMILES | Herbicidal effect, barnyard grass ([1]; 10 g./a.) | Herbicidal effect, barnyard grass ([1]; 20 g./a.) | Herbicidal effect, barnyard grass ([1]; 40 g./a.) | Herbicidal effect, large crabgrass ([2]; 10 g./a.) | Herbicidal effect, large crabgrass ([2]; 20 g./a.) | Herbicidal effect, large crabgrass ([2]; 40 g./a.) | Herbicidal effect, radish (radish; 10 g./a.) | Herbicidal effect, radish (radish; 20 g./a.) | Herbicidal effect, radish (radish; 40 g./a.) | Herbicidal effect, redroot pigweed ([3]; 10 g./a.) | Herbicidal effect, redroot pigweed ([3]; 20 g./a.) | Herbicidal effect, redroot pigweed ([3]; 40 g./a.) | Herbicidal effect, common purslane ([4]; 10 g./a.) | Herbicidal effect, common purslane ([4]; 20 g./a.) | Herbicidal effect, common purslane ([4]; 40 g./a.) | Herbicidal effect, common lambsquarter ([5]; 10 g./a.) | Herbicidal effect, common lambsquarter ([5]; 20 g./a.) | Herbicidal effect, common lambsquarter ([5]; 40 g./a.) | Phytotoxicity on rice (rice; 10 g/a) | Phytotoxicity on rice (rice; 20 g/a) | also measured |
| --- | --- | --- | --- | --- | --- | --- | --- | --- | --- | --- | --- | --- | --- | --- | --- | --- | --- | --- | --- | --- | --- |
| CCCOP(=O)(SCCC)SCC(=O)N1CCCCC1CC (stereo not drawn) [Compound 85] | 5 | 5 | 5 | 5 | 5 | 5 | 0 | 0 | 0 | 5 | 5 | 5 | 5 | 5 | 5 | 5 | 5 | 5 | 0 | 0 | Phytotoxicity on rice (rice; 40 g/a): 0; Herbicidal effects, barnyard grass ([6]; 10 g/a): 5; Herbicidal effects, barnyard grass ([6]; 20 g/a): 5; Herbicidal effects, barnyard grass ([6]; 40 g/a): 5; Herbicidal effects, broad-leaved weeds ([7]; 10 g/a): 5; Herbicidal effects, broad-leaved weeds ([7]; 20 g/a): 5; Herbicidal effects, broad-leaved weeds ([7]; 40 g/a): 5 |
| CCCOP(=O)(SCCC(C)C)SCC(=O)N1CCCCC1C (stereo not drawn) [Compound 69] | 4 | 5 | 5 | 5 | 5 | 5 | 0 | 0 | 0 | 4 | 5 | 5 | 4 | 5 | 5 | 4 | 5 | 5 | 0 | 0 | Phytotoxicity on rice (rice; 40 g/a): 1; Herbicidal effects, barnyard grass ([6]; 10 g/a): 5; Herbicidal effects, barnyard grass ([6]; 20 g/a): 5; Herbicidal effects, barnyard grass ([6]; 40 g/a): 5; Herbicidal effects, broad-leaved weeds ([7]; 10 g/a): 5; Herbicidal effects, broad-leaved weeds ([7]; 20 g/a): 5; Herbicidal effects, broad-leaved weeds ([7]; 40 g/a): 5 |
| CCOP(=O)(SCC)SCC(=O)N1CCCC(C)C1 (stereo not drawn) [Compound 71] | 5 | 5 | 5 | 5 | 5 | 5 | 0 | 1 | 2 | 4 | 5 | 5 | 4 | 5 | 5 | 4 | 4 | 5 | 0 | 0 | Phytotoxicity on rice (rice; 40 g/a): 0; Herbicidal effects, barnyard grass ([6]; 10 g/a): 5; Herbicidal effects, barnyard grass ([6]; 20 g/a): 5; Herbicidal effects, barnyard grass ([6]; 40 g/a): 5; Herbicidal effects, broad-leaved weeds ([7]; 10 g/a): 5; Herbicidal effects, broad-leaved weeds ([7]; 20 g/a): 5; Herbicidal effects, broad-leaved weeds ([7]; 40 g/a): 5 |
| CCCCOP(=O)(SCCCC)SCC(=O)N1CCCCC1CC (stereo not drawn) [Compound 95] | 4 | 5 | 5 | 4 | 5 | 5 | 0 | 0 | 0 | 2 | 3 | 3 | 2 | 3 | 3 | 2 | 3 | 4 | 0 | 0 | Phytotoxicity on rice (rice; 40 g/a): 0; Herbicidal effects, barnyard grass ([6]; 10 g/a): 5; Herbicidal effects, barnyard grass ([6]; 20 g/a): 5; Herbicidal effects, barnyard grass ([6]; 40 g/a): 5; Herbicidal effects, broad-leaved weeds ([7]; 10 g/a): 5; Herbicidal effects, broad-leaved weeds ([7]; 20 g/a): 5; Herbicidal effects, broad-leaved weeds ([7]; 40 g/a): 5 |
| CCCCCSP(=O)(OCC)SCC(=O)N1CCCCC1CC (stereo not drawn) [Compound 78] | 5 | 5 | 5 | 5 | 5 | 5 | 0 | 0 | 0 | 4 | 4 | 5 | 4 | 4 | 5 | 3 | 4 | 5 | 0 | 0 | Phytotoxicity on rice (rice; 40 g/a): 0; Herbicidal effects, barnyard grass ([6]; 10 g/a): 5; Herbicidal effects, barnyard grass ([6]; 20 g/a): 5; Herbicidal effects, barnyard grass ([6]; 40 g/a): 5; Herbicidal effects, broad-leaved weeds ([7]; 10 g/a): 5; Herbicidal effects, broad-leaved weeds ([7]; 20 g/a): 5; Herbicidal effects, broad-leaved weeds ([7]; 40 g/a): 5 |
| CCCCSP(=O)(OCCC)SCC(=O)N1CCCCC1CC (stereo not drawn) [Compound 86] | 5 | 5 | 5 | 5 | 5 | 5 | 0 | 0 | 0 | 4 | 5 | 5 | 5 | 5 | 5 | 5 | 5 | 5 | 0 | 0 | Phytotoxicity on rice (rice; 40 g/a): 0; Herbicidal effects, barnyard grass ([6]; 10 g/a): 5; Herbicidal effects, barnyard grass ([6]; 20 g/a): 5; Herbicidal effects, barnyard grass ([6]; 40 g/a): 5; Herbicidal effects, broad-leaved weeds ([7]; 10 g/a): 5; Herbicidal effects, broad-leaved weeds ([7]; 20 g/a): 5; Herbicidal effects, broad-leaved weeds ([7]; 40 g/a): 5 |
